Data taken from patent US20250275948A1, “(N-[4-(2,3-DIHYDRO-1H-INDEN-5-YL)-1,3-THIAZOL-2-YL]-2-[4-METHYL-4-(NAPHTHALEN-2-YL)-2,5-DIOXOIMIDAZOLIDIN-1-YL]ACETAMIDE AS STABILIZER OF CLOCK:BMAL1 INTERACTION FOR THE TREATMENT OF CIRCADIAN RHYTHM DISEASES AND DISORDERS” (KOC UNIVERSITESI, priority 2022, published 2025).

Tests used:
CLOCK:BMAL1 complex = target: T1, CLOCK:BMAL1 complex (Homo sapiens, UniProt O00327+O15516); assay: Pull-down assay with biotinylated-CLK95; assay type: binding; conditions: 20 μM bCLK95 bait, 200 μM CLK95 competitor; HEK 293T and U2OS lysates
T1 construct: expressed in transfected cells; host or cells: HEK 293T
T1 sequence (O15516 whole entry): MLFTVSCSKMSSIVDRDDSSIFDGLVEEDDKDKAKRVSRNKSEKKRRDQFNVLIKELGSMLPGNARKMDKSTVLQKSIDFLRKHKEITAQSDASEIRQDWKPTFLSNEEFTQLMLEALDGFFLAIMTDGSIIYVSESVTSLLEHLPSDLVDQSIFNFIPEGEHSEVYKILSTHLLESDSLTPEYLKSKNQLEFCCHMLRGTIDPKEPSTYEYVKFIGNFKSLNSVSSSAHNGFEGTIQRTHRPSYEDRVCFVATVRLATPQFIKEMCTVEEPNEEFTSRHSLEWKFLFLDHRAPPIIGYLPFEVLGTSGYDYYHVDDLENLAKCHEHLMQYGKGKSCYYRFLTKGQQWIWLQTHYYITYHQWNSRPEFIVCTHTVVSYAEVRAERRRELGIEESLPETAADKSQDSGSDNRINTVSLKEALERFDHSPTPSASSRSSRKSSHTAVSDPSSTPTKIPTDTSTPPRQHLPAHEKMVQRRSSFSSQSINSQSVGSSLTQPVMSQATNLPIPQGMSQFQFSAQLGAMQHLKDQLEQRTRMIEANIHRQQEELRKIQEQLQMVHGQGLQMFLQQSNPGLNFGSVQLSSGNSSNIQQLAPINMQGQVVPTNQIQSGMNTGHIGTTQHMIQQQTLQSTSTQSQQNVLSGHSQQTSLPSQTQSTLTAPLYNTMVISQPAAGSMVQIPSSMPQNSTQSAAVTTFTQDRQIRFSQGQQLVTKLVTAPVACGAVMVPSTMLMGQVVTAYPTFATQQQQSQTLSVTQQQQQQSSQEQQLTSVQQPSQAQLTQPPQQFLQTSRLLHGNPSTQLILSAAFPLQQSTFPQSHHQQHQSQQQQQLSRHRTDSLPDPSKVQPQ
T1 sequence (O00327 whole entry): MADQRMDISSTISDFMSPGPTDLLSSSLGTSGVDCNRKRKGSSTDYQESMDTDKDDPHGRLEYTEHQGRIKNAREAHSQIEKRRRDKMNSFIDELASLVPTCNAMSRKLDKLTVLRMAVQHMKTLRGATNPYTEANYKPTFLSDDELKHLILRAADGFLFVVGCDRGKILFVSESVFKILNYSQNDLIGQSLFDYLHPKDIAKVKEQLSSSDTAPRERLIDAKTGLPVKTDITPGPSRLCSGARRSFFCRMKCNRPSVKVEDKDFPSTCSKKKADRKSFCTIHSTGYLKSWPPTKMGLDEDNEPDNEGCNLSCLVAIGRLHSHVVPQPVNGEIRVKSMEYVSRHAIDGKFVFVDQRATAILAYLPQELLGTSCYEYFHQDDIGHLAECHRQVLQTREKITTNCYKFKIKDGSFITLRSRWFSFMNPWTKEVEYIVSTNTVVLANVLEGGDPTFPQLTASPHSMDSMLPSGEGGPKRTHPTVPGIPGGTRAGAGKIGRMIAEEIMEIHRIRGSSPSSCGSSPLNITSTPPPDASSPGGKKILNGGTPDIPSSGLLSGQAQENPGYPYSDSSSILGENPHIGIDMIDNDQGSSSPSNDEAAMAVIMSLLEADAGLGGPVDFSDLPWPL
Protocol: To perform pull-down assay HEK 293T cells were transiently transfected with either 10 μg pCMV-Sport6-CLOCK or 10 μg pCMV-Sport6-Bmal1 plasmids. First, cells were seeded in a 10 cm cell culture dish at a density which will give ˜70-80% confluency next day. Then cells were transfected with 10 μg of the appropriate plasmid using 30 μL PEI in 1 mL DMEM. Cells were harvested 24 hours post-transfection and divided into four 1.5 mL centrifuge tubes. The conditions that were employed to probe the binding of the molecule to proteins contained a) only CLOCK overexpressed, b) only BMAL1 overexpressed and c) CLOCK-BMAL1 overexpressed mixtures. Pellet for each condition was lysed with 500 μL Lysis Buffer (50 mM Tris-HCl PH 7.4, 2 mM EDTA, 1 mM MgCl2, 0.2% NP-40, 1 mM Na3VO4, 1 mM NaF, 1×PIC) and incubated on ice for 20 minutes. Then samples were centrifuged at 7000×g for 10 minutes at 4° C. The supernatants of the CLOCK and BMAL1 lysates were mixed at 1:1 ratio. Following this step, collected lysate mixture was mixed with 2× binding buffer (100 mM Tris-HCl pH 7.4, 300 mM NaCl, 0.2% NP-40, 2 mM Na3VO4, 2 mM NaF, 2×PIC) at 1:1 ratio. […]

CLOCK:BMAL1 interaction = assay: Co-immunoprecipitation (Co-IP) of CLOCK with FLAG-BMAL1; assay type: biochemical
Protocol: To investigate the binding sites of the CLK95 on CLOCK and BMAL1, promising residues which were computationally determined to interact with small molecule were mutated via site-directed mutagenesis. […] These amino acid residues were introduced to Bmal1 and CLOCK genes by PCR based mutagenesis. FLAG-tagged pcDNA4a-Bmal1 and […] were used as template DNAs. Each PCR reaction consisted of 50 ng of template DNA, 0.2 μM primer pair, 0.2 mM dNTPs and 3 units of Pfu DNA polymerase. Then the PCR reaction was performed under these conditions: 5 minutes at 98° C. followed by 12 cycles of 1 minute at 98° C., 1 minute at 55° C. and 15 minutes at 72° C. The PCR reaction completed with a final extension step at 72° C. for 15 minutes. PCR products were analysed with 0.8% of agarose. Bands at the right size were further treated with 1 μL FastDigest Dpn I (Thermo Scientific, FD1704) for 1 hour at 37° C. to digest methylated-parental DNA. Subsequently, DH5a (a strain of E. coli) cells were transformed with the 7 μL PCR product. Standard heat-shock transformation protocol was used. Transformed cells were plated on Ampicillin (100 μg/mL) containing Luria-Bertani (LB) agar plates and incubated overnight at 37° C. Later, colonies formed on the LB ager plate were selected to culture in 5 mL LB broth containing Ampicillin (100 μg/mL). After overnight incubation at 37° C., cells were harvested and plasmid isolation was performed with Macherey Nagel's NucleoSpin Plasmid (NoLid), Mini kit. Isolated plasmids were then sent for Sanger sequencing (Macrogen) to confirm desired single-site mutation.
To assess the effect CLK95 on BMAL1-CLOCK interaction Co-IP was employed. HEK 293T cell were transfected with FLAG-tagged pcDNA4a-Bmal1 or pCMV-Sport6-CLOCK plasmids. The FLAG-tagged pcDNA4a-Bmal1-R126A and pCMV-Sport6-CLOCK-F80A-K220A mutants were used in this assay. […] The protein concentration of each lysate was determined with the Pierce™ 660 nm Protein assay (Thermo Scientific, 22660). […]

## CC1(c2ccc3ccccc3c2)NC(=O)N(CC(=O)Nc2nc(-c3ccc4c(c3)CCC4)cs2)C1=O (stereo not shown) [CLK95]
CLOCK:BMAL1 complex
  binding in pull-down: specifically binding to CLOCK:BMAL1 complex
CLOCK:BMAL1 interaction
  stability of CLOCK-BMAL1: increasing the stability of CLOCK-BMAL1
CLOCK:BMAL1 interaction; Co-IP, HEK 293T lysates
  interaction between CLOCK and BMAL1: increasing the interaction between CLOCK and BMAL1
CLOCK:BMAL1 interaction; R126A mutant Co-IP
  residue needed for binding to CLOCK:BMAL1 complex: Arg126 of BMAL1 is essential
